Values quoted from earlier work in US7285553B2, “Serotonergic 5HT7 receptor compounds for treating ocular and CNS disorders” (Alcon Manufacturing, Ltd., priority 1998, dated 2007).
Read-outs that look alike come from different tables or passages of the source.

Tests used:
IOP [1] = conditions: glaucomatous monkeys
rabbit eye = conditions: for IOP: rabbits; for intraocular pressure in the anterior chamber of the eye: topically applied to the rabbit eye
IOP [2] = tested on: IOP
IOP [3] = tested on: IOP; remark: listed apart in the source

## COc1ccccc1N1CCN(CCCNc2c(C)c(=O)n(C)c(=O)n2C)CC1 [5-methylurapidil]
IOP [1]
  IOP: lowered IOP

## CCCN(CCC)C1CCc2cccc(O)c2C1 (centres unmarked) [8-hydroxy DPAT]
Rabbit eye
  IOP: lower IOP

## NCCc1c[nH]c2ccc(C(N)=O)cc12 [Example 5-CT, 5-carboxamidotryptamine]
Rabbit eye
  intraocular pressure in the anterior chamber of the eye: raise intraocular pressure

## NCCc1c[nH]c2ccc(O)cc12 [Example 5HT, 5-hydroxy tryptamine]
Rabbit eye
  intraocular pressure in the anterior chamber of the eye: raise intraocular pressure
IOP [2]; intracamerally
  IOP: raised IOP
  blood-aqueous barrier: caused breakdown of the blood-aqueous barrier
IOP [2]; topically applied
  IOP: lowers IOP

## O=C(c1ccc(F)cc1)C1CCN(CCn2c(=O)[nH]c3ccccc3c2=O)CC1 [Ketanserin]
Rabbit eye
  IOP: lowers IOP
IOP [3]; man
  IOP: lowers IOP

## c1ccc2c(c1)OC[C@H](CNCCCOc1ccc3c(c1)OCO3)O2 [MKC-242]
Rabbit eye
  IOP: lower IOP

## CC[C@@H](CO)NC(=O)[C@@H]1C=C2c3cccc4c3c(cn4C)C[C@H]2N(C)C1 [Methysergide]
Rabbit eye
  IOP: lowered IOP

## COc1cccc(CCc2ccccc2OCC(CN(C)C)OC(=O)CCC(=O)O)c1 (centres unmarked) [Saprogrelate]
Rabbit eye; dosed topically or orally
  IOP: lowers IOP
IOP [3]; man, dosed topically or orally
  IOP: lowers IOP

## CNCCC(Oc1ccc(C(F)(F)F)cc1)c1ccccc1 (centres unmarked) [fluoxetine]
IOP [3]; human subjects, oral administration
  IOP: raises IOP
